Data on two compounds can be found in PubChem BioAssay AID504587 (National Center for Advancing Translational Sciences (NCATS), 2011).

The term efflux ratio denotes the permeability from basolateral to apical divided by that in the opposite direction, in the common usage.

The subject of this data set is Caco-2 bidirectional permeability, LC-MS/MS efflux ratio. As to the kind of experiment: Inhibitors of HPGD: Efflux Ratio Profiling. To be noted: stronger effect = lower value. An excerpt:
Human 15-Hydroxyprostaglandin dehydrogenase (HPGD) catalyzes the inactivation of prostaglandin E2, and plays a major role in cancer biology by antagonizing the oncogenic potential of cyclooxygenase type 2 (COX2). Assays are available, based on absorbance/fluorescence increase of NADH with the substrate 15-OH prostaglandin E2. This bioassays provides profiling data on Caco-2 cell permeability of leads compounds developed for the HPGD project. This in vitro model is often predictive of in vivo efflux of the compound by measuring the ratio of transport in and out the plasma membrane of the Caco2-cell line. NIH Chemical Genomics Center [NCGC] Structural Genomics Consortium [SGC]
1. Buffer Preparation: Prepare 1M HEPES: add 23.83g HEPES to 100ml of 0.85% NaCl Prepare HBSS+ buffer: add 12.8ml of 1M HEPES in 0.85% NaCl to 500ml HBSS buffer. 2. Take out the compounds from -80 degrees C, ultrasonicate or pre-warm for a few minutes to thaw the compounds. 3. Solution preparation Prepare donor buffer: For A-to-B direction: HBSS buffer with 0.3% DMSO and 5uM Lucifer Yellow (LY): add 150 µl DMSO and 50 µl LY (5mM) into 50ml HBSS buffer (pH 7.4). HBSS buffer with 0.1% DMSO and 5 µM Lucifer Yellow (LY): add 50 µl DMSO and 50 µl LY (5mM) into 50ml HBSS buffer (pH 7.4). […] The T0, LY and T90, LY plates are read by FlexStation 3 at excitation of 485 nm and emission of 535 nm to determine LY permeability. […]

For `Cc1cccc(-n2cnc3cc(C(=O)N4CCCCC4)ccc32)c1`, the efflux ratio is 15.

As for `Cc1cc(-c2nnc3n2CCCCC3)c(C)n1-c1ccccc1`, the efflux ratio is 21.
